Source: ChEMBL document CHEMBL1909046, “DrugMatrix in vitro pharmacology data”

Tests used:
[1] = target: Sigma non-opioid intracellular receptor 1 (Homo sapiens, UniProt Q99720); test: DRUGMATRIX: Sigma1 radioligand binding (ligand: [3H] Haloperidol); type: cell membranes, Jurkat, Membrane; conditions: jurkat; Not Active = under 50% inhibition at 10 µM
Histamine H2 receptor = Histamine H2 receptor (Homo sapiens, UniProt P25021); type: cell membranes, CHO-K1, Membrane; conditions: cho-k1; note: in other assays of this panel Not Active means under 50% inhibition at 10 µM
Cytochrome P450 2C19 = Cytochrome P450 2C19 (Homo sapiens, UniProt P33261); conditions: bti-tn-5b1-4; note: in other assays of this panel Not Active means under 50% inhibition at 10 µM
[2] = target: T1, Type-2 angiotensin II receptor (Homo sapiens, UniProt P50052); type: cell-based; conditions: cho-k1; note: in other assays of this panel Not Active means under 50% inhibition at 10 µM
T1 sequence (P50052 whole entry): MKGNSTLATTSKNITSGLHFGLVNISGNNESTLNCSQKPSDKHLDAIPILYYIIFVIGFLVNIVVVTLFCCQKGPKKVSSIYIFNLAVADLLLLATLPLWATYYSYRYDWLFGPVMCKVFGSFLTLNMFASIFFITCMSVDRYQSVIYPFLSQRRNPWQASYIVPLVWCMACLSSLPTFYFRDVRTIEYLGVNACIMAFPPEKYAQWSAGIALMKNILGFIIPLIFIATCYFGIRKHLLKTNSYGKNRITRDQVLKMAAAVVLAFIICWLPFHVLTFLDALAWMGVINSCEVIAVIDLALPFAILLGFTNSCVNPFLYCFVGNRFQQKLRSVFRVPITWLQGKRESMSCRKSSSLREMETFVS

Melanocortin receptor 3 = Melanocortin receptor 3 (Homo sapiens, UniProt P41968); type: cell membranes, HEK293, Membrane; conditions: hek293; note: in other assays of this panel Not Active means under 50% inhibition at 10 µM
[3] = DRUGMATRIX: Glutamate, NMDA, Phencyclidine radioligand binding (ligand: [3H] TCP); type: cell membranes, Rattus norvegicus, Wistar, Cerebral cortex, Membrane; conditions: Not Active = under 50% inhibition at 10 µM
[4] = target: Delta-type opioid receptor (Homo sapiens, UniProt P41143); type: cell membranes, Membrane; conditions: hek293; note: in other assays of this panel Not Active means under 50% inhibition at 10 µM
Chain of Delta-type opioid receptor (P41143 whole entry): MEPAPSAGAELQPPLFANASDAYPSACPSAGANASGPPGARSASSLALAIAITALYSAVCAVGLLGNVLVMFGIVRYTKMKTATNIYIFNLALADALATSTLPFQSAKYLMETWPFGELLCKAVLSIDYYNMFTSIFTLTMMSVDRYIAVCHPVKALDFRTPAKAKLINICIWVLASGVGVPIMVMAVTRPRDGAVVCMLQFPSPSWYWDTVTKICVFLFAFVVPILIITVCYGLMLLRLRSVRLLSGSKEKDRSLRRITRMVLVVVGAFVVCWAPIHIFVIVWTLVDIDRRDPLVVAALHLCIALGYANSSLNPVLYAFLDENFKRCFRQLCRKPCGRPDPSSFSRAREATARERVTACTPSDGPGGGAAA

Chain of Sigma non-opioid intracellular receptor 1 (Q99720 whole entry): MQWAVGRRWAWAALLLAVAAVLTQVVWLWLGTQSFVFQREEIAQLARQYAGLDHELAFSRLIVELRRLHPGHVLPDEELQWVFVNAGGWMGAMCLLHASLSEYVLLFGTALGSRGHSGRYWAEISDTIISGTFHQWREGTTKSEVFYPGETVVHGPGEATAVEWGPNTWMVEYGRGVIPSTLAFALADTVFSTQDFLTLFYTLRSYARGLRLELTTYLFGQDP
Chain of Cytochrome P450 2C19 (P33261 whole entry): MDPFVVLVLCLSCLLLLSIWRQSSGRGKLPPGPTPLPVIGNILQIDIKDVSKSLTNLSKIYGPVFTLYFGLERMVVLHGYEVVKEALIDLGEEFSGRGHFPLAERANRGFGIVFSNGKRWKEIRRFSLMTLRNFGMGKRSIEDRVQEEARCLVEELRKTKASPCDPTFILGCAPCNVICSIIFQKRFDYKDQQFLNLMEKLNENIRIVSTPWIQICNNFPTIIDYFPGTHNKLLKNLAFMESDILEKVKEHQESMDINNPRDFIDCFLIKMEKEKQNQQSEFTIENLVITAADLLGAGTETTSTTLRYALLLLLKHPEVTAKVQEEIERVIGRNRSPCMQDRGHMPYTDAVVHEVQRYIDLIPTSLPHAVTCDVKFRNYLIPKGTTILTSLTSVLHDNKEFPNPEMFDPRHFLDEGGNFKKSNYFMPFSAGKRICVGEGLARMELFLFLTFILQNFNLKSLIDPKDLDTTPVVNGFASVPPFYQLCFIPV
Chain of Histamine H2 receptor (P25021 whole entry): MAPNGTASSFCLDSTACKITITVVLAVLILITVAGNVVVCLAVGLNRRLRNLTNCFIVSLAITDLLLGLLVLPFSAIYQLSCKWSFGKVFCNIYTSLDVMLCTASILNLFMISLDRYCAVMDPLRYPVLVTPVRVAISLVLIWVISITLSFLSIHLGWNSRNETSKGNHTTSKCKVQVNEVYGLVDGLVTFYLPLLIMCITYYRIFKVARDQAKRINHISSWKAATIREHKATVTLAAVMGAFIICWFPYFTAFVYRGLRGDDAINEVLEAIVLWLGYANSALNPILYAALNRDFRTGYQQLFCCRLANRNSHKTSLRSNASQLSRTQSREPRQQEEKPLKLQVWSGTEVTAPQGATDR
Chain of Melanocortin receptor 3 (P41968 whole entry): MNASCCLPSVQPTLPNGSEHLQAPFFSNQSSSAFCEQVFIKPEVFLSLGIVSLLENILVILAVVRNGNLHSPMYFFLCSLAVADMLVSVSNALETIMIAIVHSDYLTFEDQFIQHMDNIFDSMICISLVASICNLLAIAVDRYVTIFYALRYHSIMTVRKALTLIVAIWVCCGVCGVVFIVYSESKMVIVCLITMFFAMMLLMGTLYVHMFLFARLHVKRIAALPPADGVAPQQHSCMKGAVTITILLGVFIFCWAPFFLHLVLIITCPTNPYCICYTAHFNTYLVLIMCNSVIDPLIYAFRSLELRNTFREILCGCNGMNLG

NYSTATIN
Not Active: IC50 [1] | Ki [1] | IC50 (Histamine H2 receptor) | Ki (Histamine H2 receptor) | IC50 (Cytochrome P450 2C19) | Ki (Cytochrome P450 2C19) | IC50 [2] | Ki [2] | IC50 (Melanocortin receptor 3) | Ki (Melanocortin receptor 3) | IC50 [3] | Ki [3] | IC50 [4] | Ki [4]
